Measured values reported in the supplement of paper PMC10307832.

compound: O=C(Nc1cc(C(F)(F)F)cc(C(F)(F)F)c1)c1cc(Cl)ccc1O [IMD-0354] + C[C@]1(O)C[C@@H](c2nc(-c3ccc4ccc(-c5ccccc5)nc4c3)c3c(N)nccn32)C1 [Linsitinib] (partner 1 µM); assay: relative viability (nuclei count vs DMSO), 5 days (fraction); higher = more cells survive; conditions: first compound 0.04 µM
How it was run: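 Lung cancer cell lines were pin-tool dosed in 1536-well plates on the day after seeding, with either a lone drug or a fixed anchor-drug dose plus five library-drug doses (not always all listed) in √10 steps. Nuclei were counted on 4× images after 5 days. Relative viability is the ratio of treated-well to vehicle-well nuclei counts, with each value a median of duplicate plates.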

Cell Line	relative viability
LCLC-103H	1.11
NCI-H520	1.16
NCI-H2126	0.644
EMC-BAC-2	0.909
NCI-H2085	0.786
NCI-H1666	0.747
NCI-H596	0.973
NCI-H1395	1.02
NCI-H2087	0.887
LK-2	0.527
H3255	0.931
COR-L23	0.764
COR-L 105	1.05
LOU-NH91	0.945
NCI-H358	0.993
NCI-H2405	1.18

Cell Line	relative viability
HOP-62	1.02
HCC-44	0.68
LU99A	0.553
BEN	0.929
HARA	1.08
NCI-H322M	0.973
NCI-H2009	1.16
A-427	1.21
NCI-H441	0.485
NCI-H661	0.65
NCI-H1734	1.04
NCI-H460	1.2
NCI-H2347	1.04
SW 1573	0.764
NCI-H1793	1.15

same assay, conditions: first compound 0.1265 µM

Cell Line	relative viability
LCLC-103H	1.07
NCI-H520	0.816
NCI-H2126	0.685
EMC-BAC-2	0.825
NCI-H2085	0.976
NCI-H1666	0.957
NCI-H596	1.05
NCI-H1395	1.28
NCI-H2087	0.659
LK-2	0.505
H3255	0.916
COR-L23	0.73
COR-L 105	0.682
LOU-NH91	0.989
NCI-H358	0.773
NCI-H2405	1.06

Cell Line	relative viability
HOP-62	0.898
HCC-44	0.573
LU99A	0.527
BEN	0.771
HARA	0.867
NCI-H322M	0.909
LCLC-97TM1	0.153
NCI-H2009	1.12
A-427	1.1
NCI-H441	0.659
NCI-H661	0.632
NCI-H1734	0.936
NCI-H460	0.709
NCI-H2347	1.08
SW 1573	0.697
NCI-H1793	0.802

same assay, conditions: first compound 0.4 µM

Cell Line	relative viability
LCLC-103H	0.844
NCI-H520	0.469
NCI-H2126	0.715
EMC-BAC-2	0.549
NCI-H2085	0.687
NCI-H1666	0.609
NCI-H596	0.839
NCI-H1395	0.99
NCI-H2087	0.308
H3255	0.509
COR-L23	0.388
COR-L 105	0.638
LOU-NH91	0.652
NCI-H358	0.385
NCI-H2405	0.695
HOP-62	0.48

Cell Line	relative viability
HCC-44	0.394
LU99A	0.398
BEN	0.537
HARA	0.577
NCI-H322M	0.793
LCLC-97TM1	0.179
NCI-H2009	1.02
A-427	0.986
NCI-H441	0.31
NCI-H661	0.57
NCI-H1734	0.513
NCI-H460	0.278
NCI-H2347	0.824
SW 1573	0.589
NCI-H1793	0.349

same assay, conditions: first compound 1.265 µM

Cell Line	relative viability
LCLC-103H	0.821
NCI-H520	0.187
NCI-H2126	0.577
EMC-BAC-2	0.801
NCI-H2085	0.497
NCI-H1666	0.17
NCI-H596	1.21
NCI-H1395	0.395
NCI-H2087	0.127
LK-2	0.863
H3255	0.314
COR-L23	0.116
COR-L 105	0.613
LOU-NH91	0.317
NCI-H358	0.23
NCI-H2405	0.335

Cell Line	relative viability
HOP-62	0.93
HCC-44	0.297
LU99A	0.452
BEN	0.435
HARA	0.119
NCI-H322M	1.09
LCLC-97TM1	0.177
NCI-H2009	0.465
A-427	0.719
NCI-H441	0.234
NCI-H661	0.532
NCI-H1734	0.596
NCI-H460	0.0367
NCI-H2347	0.511
SW 1573	0.493
NCI-H1793	0.298

same assay, conditions: first compound 4 µM

Cell Line	relative viability
LCLC-103H	0.425
NCI-H520	0.179
NCI-H2126	0.316
EMC-BAC-2	0.207
NCI-H2085	0.278
NCI-H1666	0.299
NCI-H596	0.682
NCI-H1395	0.42
NCI-H2087	0.203
LK-2	0.19
H3255	0.237
COR-L23	0.158
COR-L 105	0.265
LOU-NH91	0.251
NCI-H358	0.221
NCI-H2405	0.185

Cell Line	relative viability
HOP-62	0.206
HCC-44	0.128
LU99A	0.147
BEN	0.256
HARA	0.136
NCI-H322M	0.319
LCLC-97TM1	0.132
NCI-H2009	0.139
A-427	0.115
NCI-H441	0.22
NCI-H661	0.251
NCI-H1734	0.231
NCI-H460	0.0126
NCI-H2347	0.447
SW 1573	0.102
NCI-H1793	0.224
